Activity calls are given as the source filed them. The rule behind the calls is not given here.
Experiments:
MDA-MB-231 [1] = experiment: […] in human MDA-MB-231 cells assessed as induction of LC3-II accumulation at 2 umol/L for 48 hrs by Western blot analysis; format: functional, cell-based; settings: dose 2.0 µmol/L
MDA-MB-231 [2] = experiment: […] in human MDA-MB-231 cells assessed as induction of LC3-II accumulation at 1 umol/L for 48 hrs by Western blot analysis; format: functional, cell-based; settings: dose 1.0 µmol/L
MDA-MB-231 [3] = experiment: Induction of apoptosis in human MDA-MB-231 cells assessed as cleavage of caspase-3 at 0.75 umol/L incubated for 72 hrs by Western blot analysis; format: functional, cell-based; settings: dose 0.75 µmol/L
MDA-MB-231 [4] = experiment: Induction of apoptosis in human MDA-MB-231 cells assessed as cleavage of PARP at 0.75 umol/L incubated for 72 hrs by Western blot analysis; format: functional, cell-based; settings: dose 0.75 µmol/L
MDA-MB-231 [5] = experiment: Induction of autophagy in human MDA-MB-231 cells assessed as induction of LC3-II accumulation at 10 umol/L for 48 hrs by Western blot analysis; settings: dose 10.0 µmol/L

O=C(CCCCCCC(=O)Nc1ccccc1)NO
Activity (MDA-MB-231 [1]): Active

CC(=O)O[C@H]1C(=O)[C@@]2(C)[C@H]([C@H](OC(=O)c3ccccc3)[C@]3(O)C[C@H](OC(=O)[C@H](O)[C@@H](NC(=O)c4ccccc4)c4ccccc4)C(C)=C1C3(C)C)[C@]1(OC(C)=O)CO[C@@H]1C[C@@H]2O
Activity (MDA-MB-231 [2]): Active

COc1cccc2c1C(=O)c1c(O)c3c(c(O)c1C2=O)C[C@@](O)(C(=O)CO)C[C@@H]3O[C@H]1C[C@H](N)[C@H](O)[C@H](C)O1
Activity (MDA-MB-231 [3]): Active
Activity (MDA-MB-231 [4]): Active
Activity (MDA-MB-231 [2]): Active

COc1cc([C@@H]2c3cc4c(cc3[C@@H](O[C@@H]3O[C@@H]5CO[C@@H](C)O[C@H]5[C@H](O)[C@H]3O)[C@H]3COC(=O)[C@H]23)OCO4)cc(OC)c1O
Activity (MDA-MB-231 [5]): Active

Source: ChEMBL document CHEMBL5712884, “S-Adenosyl-L-methionine-competitive inhibitors of the histone methyltransferase EZH2 induce autophagy and enhance drug sensitivity in cancer cells” (Anticancer Drugs, 2015)
